The results in this text go back to patent US20260015350A1, “AZAQUINAZOLINE PAN-KRAS INHIBITORS” (Mirati Therapeutics, Inc., priority 2022, published 2026).

Assay [1] relates to KRas-mediated phosphorylation of ERK in MKN1 cells. Briefly: Inhibition of KRas-mediated phosphorylation of ERK (Cisbio HTRF pERK), MKN1 cells. The format is cell-based. Conditions: Homo sapiens, MKN-1. The essentials: (§1)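 Day 1 seeding: 6,000 cells per well, RPMI/10% FBS, left overnight at 37° C. with 5% CO2. Plates then stood covered for 4 h at room temperature prior to HTRF detection of pERK.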

The subject of assay [2] is KRas-mediated phosphorylation of ERK in A549 cells. Nature of the assay: Inhibition of KRas-mediated phosphorylation of ERK (Cisbio HTRF pERK), A549 cells. The format is cell-based. Conditions: Homo sapiens; for IC50: HTRF pERK. The essentials: (§2)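 6,000 cells/well; cpd 10 uM top, 3-fold x10, 0.8% DMSO final; 3 hr incubation; Min ctrl Trametinib 0.2 uM; lysis 40 min 4° C shaking; d2 + Cryptate Ab mix, 2 hr RT; HTRF read.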

A further assay addresses T1, KRas^G12R (Homo sapiens, UniProt P01116, G12R).
T1 construct: Biotinylated KRas (corresponding to amino acids 1-169, produced at Accelegan Inc.); biotin (biotinylated); purchased Accelegan Inc
Briefly: KRas binding assay (TR-FRET tracer displacement), KRas G12R. (Time-resolved FRET reads energy transfer from a long-lived donor to a nearby acceptor.)

The subject of assay [3] is KRas-mediated phosphorylation of ERK in AsPC-1 cells. Nature of the assay: Inhibition of KRas-mediated phosphorylation of ERK (Cisbio HTRF pERK), AsPC-1 cells. The format is cell-based. Conditions: Homo sapiens, ASPC1, AsPC-1 cells; HTRF pERK. The essentials: (§3)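 Min control wells contained 0.2 uM Trametinib, while test compounds ran as 10 doses (3-fold, top 10 uM; 0.8% DMSO final) on cells for 3 hrs. After 40 mins lysis at 4° C, lysates were probed with HTRF antibodies for 2 hrs at room temperature.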

A further assay addresses T2, KRas^G12V (Homo sapiens, UniProt P01116, G12V).
T2 construct: Biotinylated KRas (corresponding to amino acids 1-169, produced at Accelegan Inc.); biotin (biotinylated); purchased Accelegan Inc
Nature of the assay: KRas binding assay (TR-FRET tracer displacement), KRas G12V.

The test system of assay [4] is KRas-mediated phosphorylation of ERK in PSN1 cells. Nature of the assay: Inhibition of KRas-mediated phosphorylation of ERK (Cisbio HTRF pERK), PSN1 cells. The format is cell-based. Conditions: Homo sapiens. The gist of the method: as §1
In assay [5] the test system is KRas-mediated phosphorylation of ERK in H460 cells. Nature of the assay: Inhibition of KRas-mediated phosphorylation of ERK (Cisbio HTRF pERK), H460 cells. The format is cell-based. Conditions: Homo sapiens; for IC50: NCI-H460, HTRF pERK; for inhibition at 0.1 µM: NCI-H460, 3 h, single point, 100 nM compound, 3 hrs. The gist of the method: as §3
A further assay concerns the target T3, KRas^G12D (Homo sapiens, UniProt P01116, G12D).
T3 construct: Biotinylated KRas (corresponding to amino acids 1-169, produced at Accelegan Inc.); biotin (biotinylated); purchased Accelegan Inc
Nature of the assay: KRas binding assay (TR-FRET tracer displacement), KRas G12D.

The test system of assay [6] is KRas-mediated phosphorylation of ERK in HCT116 cells. Nature of the assay: Inhibition of KRas-mediated phosphorylation of ERK (Cisbio HTRF pERK), HCT116 cells. The format is cell-based. Conditions: Homo sapiens; for IC50: HCT-116, HTRF pERK; for inhibition at 0.1 µM: HCT-116, 3 h, single point, 100 nM compound, 3 hrs. The gist of the method:
as §2

Assay [7] has as its system KRas-mediated phosphorylation of ERK in H727 cells. Nature of the assay: Inhibition of KRas-mediated phosphorylation of ERK (Cisbio HTRF pERK), H727 cells. To be noted: Homo sapiens, NCI-H727, H727 cells; HTRF pERK. The format is cell-based. The essentials:
as §3

Assay [8] deals with KRas-mediated phosphorylation of ERK in H358 cells. Briefly: Inhibition of KRas-mediated phosphorylation of ERK (Cisbio HTRF pERK), H358 cells. The format is cell-based. Conditions: Homo sapiens. The essentials: as §3

T1 sequence (P01116 1-169 isoform P01116-2 G12R): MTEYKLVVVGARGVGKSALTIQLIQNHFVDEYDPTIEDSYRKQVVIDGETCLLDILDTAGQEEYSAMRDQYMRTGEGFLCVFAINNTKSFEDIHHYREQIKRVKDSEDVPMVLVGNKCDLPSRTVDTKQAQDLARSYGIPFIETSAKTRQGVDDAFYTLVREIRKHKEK
T2 sequence (P01116 1-169 isoform P01116-2 G12V): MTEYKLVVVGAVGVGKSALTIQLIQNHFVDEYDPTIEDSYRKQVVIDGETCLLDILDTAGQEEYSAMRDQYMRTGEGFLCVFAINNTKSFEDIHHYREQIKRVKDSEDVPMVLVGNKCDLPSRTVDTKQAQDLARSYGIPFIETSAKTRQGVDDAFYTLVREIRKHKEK
T3 sequence (P01116 1-169 isoform P01116-2 G12D): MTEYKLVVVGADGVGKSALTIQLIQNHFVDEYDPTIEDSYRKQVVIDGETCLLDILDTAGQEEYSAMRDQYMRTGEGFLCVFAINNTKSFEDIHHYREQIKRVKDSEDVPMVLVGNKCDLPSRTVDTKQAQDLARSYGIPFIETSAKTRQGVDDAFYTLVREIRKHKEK

Take `CCc1c(F)ccc2cc(O)cc(-c3ncc4c(N5C[C@H](F)C[C@@H](OC)C5)nc(OC[C@@]56CCCN5C[C@H](F)C6)nc4c3F)c12` [Example 557, 5-ethyl-6-fluoro-4-(8-fluoro-4-((3R,5R)-3-fluoro-5-methoxypiperidin-1-yl)-2-(((2R,7aS)-2-fluorohexahydro-1H-pyrrolizin-7a-yl)methoxy)pyrido[4,3-d]pyrimidin-7-yl)naphthalen-2-ol]: the IC50 in [1] is 22 nM; in [2], 174 nM; at KRas^G12R, 4 nM; in [3], 617 nM; at KRas^G12V, 6 nM; in [4] it was above 10000 nM. The concentration for half-maximal inhibition (IC50) came to 165 nM in [5], 12 nM on KRas^G12D, 517 nM in [6] and 216 nM in [7].
On to `CCc1c(F)ccc2cc(O)cc(-c3ncc4c(N5CCCc6ncccc6C5)nc(OC[C@@]56CCCN5C[C@H](F)C6)nc4c3F)c12` [Example 579, 5-ethyl-6-fluoro-4-(8-fluoro-2-(((2R,7aS)-2-fluorotetrahydro-1H-pyrrolizin-7a(5H)-yl)methoxy)-4-(5,7,8,9-tetrahydro-6H-pyrido[3,2-c]azepin-6-yl)pyrido[4,3-d]pyrimidin-7-yl)naphthalen-2-ol], for which the IC50 in [1] is 37 nM; in [2] it was 357 nM; at KRas^G12R, 3 nM; in assay [3], 155 nM; at KRas^G12V, 6 nM; in assay [4] it was above 10000 nM. Further, the IC50 worked out at 481 nM in [5], 5 nM on KRas^G12D, 1780 nM in [6] and 369 nM in assay [7].
In the case of `CCc1c(F)ccc2cc(O)cc(-c3ncc4c(N5CCCC(C6(O)CCC6)C5)nc(OC[C@@]56CCCN5C[C@H](F)C6)nc4c3F)c12` (stereo partly drawn) [Example 593, 5-ethyl-6-fluoro-4-(8-fluoro-2-(((2R,7aS)-2-fluorotetrahydro-1H-pyrrolizin-7a(5H)-yl)methoxy)-4-(3-(1-hydroxycyclobutyl)piperidin-1-yl)pyrido[4,3-d]pyrimidin-7-yl)naphthalen-2-ol], the IC50 was 293 nM in assay [1]; 7 nM on KRas^G12R; 1230 nM in [3]; 10 nM at KRas^G12V; above 10000 nM in [4]; 72 nM on KRas^G12D. Also, the IC50 in assay [7] turned out to be 391 nM. Also, the inhibition at 0.1 µM in assay [5] was 0%; in [6], -4%.
On to `CCc1c(F)ccc2cc(O)cc(-c3ncc4c(N5CCCC6(CNS(=O)(=O)C6)C5)nc(OC[C@@]56CCCN5C[C@H](F)C6)nc4c3F)c12` (stereo partly drawn) [Example 644, 7-(7-(8-ethyl-7-fluoro-3-hydroxynaphthalen-1-yl)-8-fluoro-2-(((2R,7aS)-2-fluorohexahydro-1H-pyrrolizin-7a-yl)methoxy)pyrido[4,3-d]pyrimidin-4-yl)-2-thia-3,7-diazaspiro[4.5]decane 2,2-dioxide], for which the IC50 is 10 nM in assay [1]; 299 nM in assay [2]; below 2 nM at KRas^G12R; 147 nM in assay [3]; below 2 nM on KRas^G12V; 2620 nM in assay [4]. For the same compound, the IC50 in [5] was found to be 160 nM; at KRas^G12D, 3 nM; in assay [6] it was 411 nM; in [7] it was 340 nM.
In the case of `CCc1c(F)ccc2cc(O)cc(-c3ncc4c(NCc5cc(C(=O)N(C)C)n(C(F)F)n5)nc(OC[C@@]56CCCN5C[C@H](F)C6)nc4c3F)c12` [Example 662, 1-(difluoromethyl)-3-(((7-(8-ethyl-7-fluoro-3-hydroxynaphthalen-1-yl)-8-fluoro-2-(((2R,7aS)-2-fluorohexahydro-1H-pyrrolizin-7a-yl)methoxy)pyrido[4,3-d]pyrimidin-4-yl)amino)methyl)-N,N-dimethyl-1H-pyrazole-5-carboxamide], the IC50 is 57 nM in assay [1]; 3 nM at KRas^G12R; 837 nM in [3]; below 2 nM at KRas^G12V; above 10000 nM in assay [4]; 3 nM on KRas^G12D. This compound had an IC50 in assay [7] of 274 nM. The inhibition at 0.1 µM is 22% in assay [2] (A549, 3 h, single point, 100 nM compound, 3 hrs) and 22% in assay [8] (NCI-H358, 3 h, single point, 100 nM compound, 3 hrs).
As to `CCc1c(F)ccc2cc(O)cc(-c3ncc4c(N5CCCc6nc(C(=O)N(C)C)ccc6C5)nc(OC[C@@]56CCCN5C[C@H](F)C6)nc4c3F)c12` [Example 666, 6-(7-(8-ethyl-7-fluoro-3-hydroxynaphthalen-1-yl)-8-fluoro-2-(((2R,7aS)-2-fluorohexahydro-1H-pyrrolizin-7a-yl)methoxy)pyrido[4,3-d]pyrimidin-4-yl)-N,N-dimethyl-6,7,8,9-tetrahydro-5H-pyrido[3,2-c]azepine-2-carboxamide], the IC50 in [1] was 18 nM; in [2], 207 nM; on KRas^G12R, below 2 nM; in assay [3] it was 184 nM; at KRas^G12V, 2 nM; in [4], above 10000 nM. Further, the IC50 on KRas^G12D was below 2 nM; in assay [7] it was 320 nM. Besides, the values for the inhibition at 0.1 µM in [5] and in assay [6] were 59% and 24%, respectively.
Regarding `CCc1c(F)ccc2cc(O)cc(-c3ncc4c(N5CCCn6nc(S(=O)(=O)N(C)C)cc6C5)nc(OC[C@@]56CCCN5C[C@H](F)C6)nc4c3F)c12` [Example 685, 5-(7-(8-ethyl-7-fluoro-3-hydroxynaphthalen-1-yl)-8-fluoro-2-(((2R,7aS)-2-fluorohexahydro-1H-pyrrolizin-7a-yl)methoxy)pyrido[4,3-d]pyrimidin-4-yl)-N,N-dimethyl-5,6,7,8-tetrahydro-4H-pyrazolo[1,5-a][1,4]diazepine-2-sulfonamide], the IC50 in [1] is 9 nM; in [2], 1090 nM; on KRas^G12R it was 6 nM; in [3], 245 nM; at KRas^G12V, 8 nM; in assay [4] it was above 10000 nM. In addition, the IC50 was 188 nM in [5], below 2 nM at KRas^G12D, 359 nM in [6] and 1670 nM in assay [7].
As to `CCc1c(F)ccc2cc(O)cc(-c3ncc4c(N5CCC[C@@](C)(O)C5)nc(OCC5(CNC)CC5)nc4c3F)c12` [Example 696, (R)-1-(7-(8-ethyl-7-fluoro-3-hydroxynaphthalen-1-yl)-8-fluoro-2-((1-((methylamino)methyl)cyclopropyl)methoxy)pyrido[4,3-d]pyrimidin-4-yl)-3-methylpiperidin-3-ol], the IC50 is 123 nM in [1]; 3 nM on KRas^G12R; 690 nM in assay [3]; below 2 nM on KRas^G12V; above 10000 nM in assay [4]; below 2 nM on KRas^G12D. The compound also came in with an IC50 in assay [7] of 948 nM. Further, the inhibition at 0.1 µM in assay [5] is 21%; in assay [6], 5%.
For `CCc1c(F)ccc2cc(O)cc(-c3ncc4c(N5CCCC6(CC(=O)N6)C5)nc(OC[C@]56CCCN5[C@H](COC(=O)N(C)C)CC6)nc4c3F)c12` (stereo partly drawn) [Example 715, ((3S,7aR)-7a-(((7-(8-ethyl-7-fluoro-3-hydroxynaphthalen-1-yl)-8-fluoro-4-(2-oxo-1,6-diazaspiro[3.5]nonan-6-yl)pyrido[4,3-d]pyrimidin-2-yl)oxy)methyl)hexahydro-1H-pyrrolizin-3-yl)methyl dimethylcarbamate], the IC50 in assay [1] came out at 43 nM; in assay [2] it was 344 nM; at KRas^G12R, 4 nM; in assay [3], 97 nM; at KRas^G12V, 2 nM; in assay [4], 3620 nM. Moreover, the IC50 on KRas^G12D worked out at 4 nM; in [7] it was 153 nM. In addition, the inhibition at 0.1 µM in assay [5] stood at 42%; in [6], 8%.
Regarding `CCc1c(F)ccc2cc(O)cc(-c3ncc4c(N5CCCCC5)nc(OC[C@@]56CCCN5C[C@H](F)C6)nc4c3F)c12` [Example 900, 5-ethyl-6-fluoro-4-(8-fluoro-2-(((2R,7aS)-2-fluorotetrahydro-1H-pyrrolizin-7a(5H)-yl)methoxy)-4-(piperidin-1-yl)pyrido[4,3-d]pyrimidin-7-yl)naphthalen-2-ol], the IC50 in assay [1] is 3 nM; in [2], 136 nM; in assay [3], 213 nM; in assay [4], above 10000 nM; in assay [5] it was 96 nM; in assay [6] it was 504 nM. Further, the IC50 is 240 nM in assay [7] and 82 nM in assay [8] (NCI-H358, HTRF pERK).

Usually IC50 stands for the concentration that inhibits the measured activity by half. Low values mean greater potency, high ones weaker potency. By inhibition is commonly meant the change of the read-out against control, counted positive when it falls.
